Source: patent US8598157B2, “5-alkynyl-pyridines” (Boehringer Ingelheim International GmbH, priority 2011, dated 2013)

Columns and labels:
[1] = test system: MB453 cells; assay: alamarBlue MB453 cell assay (antiproliferative/cytotoxicity); format: cell-based; details: Homo sapiens; MDA MB 453 breast cancer cell line
From the text: (§1) The H460, MB453, U87, MCF7 and BT474 alamarBlue cell assays provide EC50 values indicative of the antiproliferative or cytotoxic effects of the compounds to respectively the H460 (human non small cell line cancer), MB-453 (breast cancer cell line), U87 (glioblastoma cell line), MCF7 (breast cancer cell line) and BT474 (breast cancer cell line). As known in the field, antiproliferative or cytotoxic effect against this cell lines would be expected to be indicative of activity in treating lung, breast and brain cancers. See R. Marone R et al. Biochim. Biophys. Acta. 2008 January; 1784(1):159-85. S. Yaguchi et al., J. Natl. Cancer Inst. 2006 Apr. 19; 98(8):545-56.
(§2) Method Type: Antiproliferative/Cytotoxicity
(§3) alamarBlue® is designed to provide a rapid and sensitive measure of cell proliferation and cytotoxicity in various human and animal cell lines. The assay is based on the reduction of alamarBlue in the reducing environment of living (metabolically active) cells. In the presence of added cytotoxic or antiproliferative compounds, the innate metabolic activity ceases.
(§4) AlamarBlue is soluble and stable in culture medium. Measurements are made fluorometrically by exciting at 530-560 nm and measuring emission at 590 nm. In reporting percent alamarBlue reduction by monitoring fluorescence, data are expressed as fluorescence emission intensity units as a function of time of incubation.
(§5) 3. Equipment • 96-well plates, flat bottom (Falcon, Cat. No.: 353072) • 96-well plates, U-shaped (Costar, Cat. No.: 3799) • CO2-Incubator • Microplate Reader, Spectramax Plus, Molecular Devices 4. Typical Procedure • Day 0: Seed 3000 BT-474 cells (IMDM/5% FCS, 1% NEAA, 1% Sodiumpyruvat) in 150 μl medium into a 96-well plate, flat bottom (include mediumblank). Incubate plates at 37° C. in a CO2 incubator overnight. • Day 1: Dilute compounds to a concentration 40 μM->1:3 in medium, 10 dilution steps, in 96-well plates. • Add 50 μl per well of each dilution (total volume per well 200 μl; final conc. of cpds: 10 μM->1:3). If required, test further dilutions. • All concentrations are tested in duplicates. • Controls: Cells w/o cpd. (+50 μl medium/DMSO). • Cells are incubated with compounds for 5-6 days. • Day 6 or 7: Add 25 μl of alamarBlue solution to each well and incubate for 8 hours at 37° C. Measure fluorescence by exciting at 530-560 nm and measuring emission at 590 nm. 5. Evaluation • Subtract average value for medium blank from sample readings • Calculate EC50 using GraphPad Prism (Fifty)

[2] = target: PI3Kalpha (Homo sapiens (Human), UniProt P42336); assay: Inhibition of PI3Kalpha-induced PIP-2 phosphorylation (filter-binding assay); format: biochemical; details: 33P-ATP, p85alpha/His-p110alpha, read-out: IC50 PI3Kα
PI3Kalpha, sequence (P42336 whole entry): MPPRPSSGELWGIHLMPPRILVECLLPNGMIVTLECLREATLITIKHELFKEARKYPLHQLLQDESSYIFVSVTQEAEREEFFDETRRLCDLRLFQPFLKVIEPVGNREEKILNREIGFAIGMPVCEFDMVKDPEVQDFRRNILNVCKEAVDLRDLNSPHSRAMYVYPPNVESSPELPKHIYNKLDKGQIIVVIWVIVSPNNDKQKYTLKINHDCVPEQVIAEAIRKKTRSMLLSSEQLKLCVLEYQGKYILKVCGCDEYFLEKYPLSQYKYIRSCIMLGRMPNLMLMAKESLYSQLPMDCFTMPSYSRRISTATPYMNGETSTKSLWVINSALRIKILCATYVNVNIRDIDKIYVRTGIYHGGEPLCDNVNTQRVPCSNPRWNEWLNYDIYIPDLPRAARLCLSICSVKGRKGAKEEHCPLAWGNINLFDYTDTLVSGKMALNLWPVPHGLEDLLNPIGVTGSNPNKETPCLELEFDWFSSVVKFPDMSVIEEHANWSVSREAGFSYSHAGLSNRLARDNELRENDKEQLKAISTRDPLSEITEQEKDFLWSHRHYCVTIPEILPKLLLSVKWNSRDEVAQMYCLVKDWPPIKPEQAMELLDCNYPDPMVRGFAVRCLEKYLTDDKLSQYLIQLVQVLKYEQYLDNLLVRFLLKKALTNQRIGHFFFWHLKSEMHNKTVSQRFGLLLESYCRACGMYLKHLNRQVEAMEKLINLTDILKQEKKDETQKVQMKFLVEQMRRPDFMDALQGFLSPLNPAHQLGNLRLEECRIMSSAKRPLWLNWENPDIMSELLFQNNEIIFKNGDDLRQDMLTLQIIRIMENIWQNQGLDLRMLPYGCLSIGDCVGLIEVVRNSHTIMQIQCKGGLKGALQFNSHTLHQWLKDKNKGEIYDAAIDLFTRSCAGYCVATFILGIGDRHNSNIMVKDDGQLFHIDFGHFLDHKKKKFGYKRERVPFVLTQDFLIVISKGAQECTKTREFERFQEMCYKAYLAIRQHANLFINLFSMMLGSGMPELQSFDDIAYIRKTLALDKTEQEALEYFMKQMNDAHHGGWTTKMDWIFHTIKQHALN
From the text: Inhibition of PI3Kalpha-Induced PIP-2 Phosphorylation
This PI3Kalpha assay provides an IC50 value indicative of the activity of the compounds to inhibit PI3 kinase alpha activity. Inhibition of PI3 kinase would be expected to be indicative of activity in treating conditions of excessive or anomalous cell proliferation, such as cancers. See also J. A. Engelman, Nature Reviews Cancer, 2009, 9, 550-562; A. Carnero, Expert Opin. Investig. Drugs, 2009, 18, 1265-1277 and P. Liu et al., Nature Reviews Drug Discovery, 2009, 8, 627-64.
Method Type: Filter-Binding-Assay
Aliquoted in desired amounts and stored at −80° C. Final assay concentration 25 ng/well • Phosphotyrosin PDGFRbeta-peptide H-CGG-pY-[…]-pY-VPMLDM-NH2 was synthesized by Jerini Peptide Technologies (JPT) and used in a final conc. of 1.7 μM (stock 100 μM prepared in Assay buffer with DTT, aliquoted in desired amounts and stored at −80° C.) • Cold ATP (from Sigma; A-7699), 100 μM stock solution in H2O, use 1 μM final concentration in assay • [33P]-ATP, 370 MBq/ml from Amersham (#AH9968), use 0.5 μCi/well (10 mCi/ml) • Clear 96-well plates from Greiner (#655 162) • Filter plates: Perkin Elmer UniFilter GF/B #6005177 • Microscint 0 (from Perkin Elmer, #6013611) 2. Assay Procedure
The substrate-containing lipid vesicles are dissolved to a concentration of 0.637 mg lipid blend/ml assay buffer (with BSA, freshly added) in 50 ml Falcon->keep on ice, followed by ultrasonication (pulse of 15 sec followed by a pause of 10 sec, 4×). Compounds are serially diluted in assay buffer+6% DMSO and […] of each dilution is added per well of a 96-well plate (compounds are tested in duplicates) and mixed with 30 μl of the lipid vesicles containing PDGFR-Peptide ([…]) and PI3K alpha (25 ng/well final). The mixture is then incubated for 20 minutes at room temperature. Subsequently, 20 μl of assay buffer containing […] cold ATP and 0.5 μCi/20 μl 33P-ATP are added. The plates are then incubated at room temperature for 120 minutes (shaking with 300 rpm).
The reaction mix is transferred onto filter plates using “filtermate harvester” from Packard: filter plates are rinsed with PBS, then the reaction mix is filtered onto the filter plate, washed 5 times with PBS and are allowed to dry for 30-60 minutes at 50° C.
The plate bottom is sealed with Perkin Elmer white adhesive foil and 25 μl/well Microscint( ) are added, the top is covered with transparent adhesive foil and the plate is measured with Wallac Trilux 1450 Microbeta Counter.
As positive control serve wells containing vehicle controls (1% DMSO in assay buffer), showing non-inhibited kinase activity (high values). Wells containing assay buffer instead of enzyme can serve as control for background activity (low values).
Calculate IC50 values using the Smiley program (based on GrapPad Prism)

[3] = test system: MCF7 cells; assay: alamarBlue MCF7 cell assay (antiproliferative/cytotoxicity); format: cell-based; details: MCF7 human breast cancer cell line
From the text: as §1, §2, §3, §4, §5

[4] = test system: BT474 cells; assay: alamarBlue BT474 cell assay (antiproliferative/cytotoxicity); format: cell-based; details: BT-474 human breast cancer cell line
From the text: as §1, §2, §3, §4, §5

[5] = test system: U87 cells; assay: U87 cell assay (antiproliferative/cytotoxicity); format: cell-based; details: U-87MG human glioblastoma cells
From the text: as §1, §2, §3, §4, §5

[6] = test system: H460 cells; assay: alamarBlue H460 cell assay (antiproliferative/cytotoxicity); format: cell-based; details: NCI-H460; H460 human lung carcinoma cells
From the text: as §1, §2, §3, §4, §5

Row | Compound | EC50 [1] [nM] | IC50 [2] [nM] | EC50 [3] [nM] | EC50 [4] [nM] | EC50 [5] [nM] | EC50 [6] [nM]
1 | Cc1ncc(C#Cc2c(C)ncnc2N2CCOCC2)cc1NS(=O)(=O)c1ccccc1F [Example I-2, 2-Fluoro-N-[2-methyl-5-(4-methyl-6-morpholin-4-yl-pyrimidin-5-ylethynyl)-pyridin-3-yl]-benzenesulfonamide] | 168 | 0.65 | 43 | 148 | 342 | 234
2 | CCCS(=O)(=O)Nc1cc(C#Cc2c(C)ncnc2N2CCOCC2)cnc1C [Example I-3, Propane-1-sulfonic acid [2-methyl-5-(4-methyl-6-morpholin-4-yl-pyrimidin-5-ylethynyl)-pyridin-3-yl]-amide] | 777 | 5 | 451 | 1040 | 529 | 315
3 | COc1cccc(S(=O)(=O)Nc2cc(C#Cc3c(C)ncnc3N3CCOCC3)cnc2C)c1 [Example I-4, 3-Methoxy-N-[2-methyl-5-(4-methyl-6-morpholin-4-yl-pyrimidin-5-ylethynyl)-pyridin-3-yl]-benzenesulfonamide] | 294 | 1 | 296 | 246 | 467 | 114
4 | Cc1ncc(C#Cc2c(C)ncnc2N2CCOCC2)cc1NS(=O)(=O)c1ccccc1Cl [Example I-5, 2-Chloro-N-[2-methyl-5-(4-methyl-6-morpholin-4-yl-pyrimidin-5-ylethynyl)-pyridin-3-yl]-benzenesulfonamide] | 202 | 1 | 61 | 152 | 271 | 64
5 | Cc1ncc(C#Cc2c(C)ncnc2N2CCOCC2)cc1NS(=O)(=O)c1cccc(F)c1 [Example I-6, 3-Fluoro-N-[2-methyl-5-(4-methyl-6-morpholin-4-yl-pyrimidin-5-ylethynyl)-pyridin-3-yl]-benzenesulfonamide] | 259 | 1 | 75 | 194 | 368 | 130
6 | Cc1ncc(C#Cc2c(C)ncnc2N2CCOCC2)cc1NS(=O)(=O)c1c(F)cccc1F [Example I-7, 2,6-Difluoro-N-[2-methyl-5-(4-methyl-6-morpholin-4-yl-pyrimidin-5-ylethynyl)-pyridin-3-yl]-benzenesulfonamide] | 146 | 0.8 | 38 | 82 | 223 | 108
7 | Cc1ncc(C#Cc2c(C)ncnc2N2CCOCC2)cc1NS(=O)(=O)c1ccccc1Br [Example I-8, 2-Bromo-N-[2-methyl-5-(4-methyl-6-morpholin-4-yl-pyrimidin-5-ylethynyl)-pyridin-3-yl]-benzenesulfonamide] | 143 | 1 | 46 | 134 | 205 | 47
8 | Cc1ncc(C#Cc2c(C)ncnc2N2CCOCC2)cc1NS(=O)(=O)c1cn(C)cn1 [Example I-9, 1-Methyl-1H-imidazole-4-sulfonic acid [2-methyl-5-(4-methyl-6-morpholin-4-yl-pyrimidin-5-ylethynyl)-pyridin-3-yl]-amide] | 1070 | 1 | 748 | 856 | 1450 | 1460
9 | Cc1ncc(C#Cc2c(C)ncnc2N2CCOCC2)cc1NS(=O)(=O)c1cccs1 [Example I-10, Thiophene-2-sulfonic acid [2-methyl-5-(4-methyl-6-morpholin-4-yl-pyrimidin-5-ylethynyl)-pyridin-3-yl]-amide] | 113 | 0.72 | 67 | 116 | 126 | 42
10 | Cc1ccccc1S(=O)(=O)Nc1cc(C#Cc2c(C)ncnc2N2CCOCC2)cnc1C [Example I-11, 2-Methyl-N-[2-methyl-5-(4-methyl-6-morpholin-4-yl-pyrimidin-5-ylethynyl)-pyridin-3-yl]-benzenesulfonamide] | 298 | 1 | 190 | 271 | 466 | 56
11 | COCCS(=O)(=O)Nc1cc(C#Cc2c(C)ncnc2N2CCOCC2)cnc1C [Example I-12, 2-Methoxy-ethanesulfonic acid [2-methyl-5-(4-methyl-6-morpholin-4-yl-pyrimidin-5-ylethynyl)-pyridin-3-yl]-amide] | 839 | 4 | 464 | 684 | 1290 | 486
12 | Cc1ncc(C#Cc2c(C)ncnc2N2CCOCC2)cc1NS(=O)(=O)c1ccccc1C(F)(F)F [Example I-13, N-[2-Methyl-5-(4-methyl-6-morpholin-4-yl-pyrimidin-5-ylethynyl)-pyridin-3-yl]-2-trifluoromethyl-benzenesulfonamide] | 63 | 0.63 | 18 | 69 | 108 | 23
13 | Cc1ncc(C#Cc2c(C)ncnc2N2CCCCC2)cc1NS(=O)(=O)c1ccc(F)cc1F [Example I-14, 2,4-Difluoro-N-[2-methyl-5-(4-methyl-6-piperidin-1-yl-pyrimidin-5-ylethynyl)-pyridin-3-yl]-benzenesulfonamide] | 444 | 0.85 | 114 | 252 | 615 | 245
14 | Cc1ncc(C#Cc2c(C)ncnc2N(C)C(C)C)cc1NS(=O)(=O)c1ccc(F)cc1F [Example I-15, 2,4-Difluoro-N-{5-[4-(isopropyl-methyl-amino)-6-methyl-pyrimidin-5-ylethynyl]-2-methyl-pyridin-3-yl}-benzenesulfonamide] | 898 | 0.74 | 163 | 318 | 1670 | 376
